Results as given in article PMC9230136 (Pharmaceutics, 2022).

Columns and labels:
A549 = test: Antiproliferative assay (resazurin, 72 h); format: cell-based, human
Procedure: (§1) Colon adenocarcinoma (HT-29) and T-cell leukemia (Jurkat) cells were grown in RPMI-1640 medium (Gibco, Milano, Italy). Promyelocytic leukemia cells (HL-60), non-small cell lung carcinoma (A549), cervix carcinoma (HeLa) and breast adenocarcinoma (MDA-MB-231) cells were grown in DMEM medium (Gibco, Milano, Italy). Both media were supplemented with 115 units/mL of penicillin G (Gibco, Milano, Italy), 115 μg/mL of streptomycin (Invitrogen, Milano, Italy) and 10% fetal bovine serum (Invitrogen, Milano, Italy). All the cell lines used were purchased from the American Type Culture Collection (ATCC, Manassas, VA, USA). Stock solutions (10 mM) of the compounds were obtained by dissolving them in DMSO.
(§2) The cells were seeded in 96-well plates at the appropriate density for each cell line. After 24 h, the cells were treated by performing serial 5-fold dilutions of the tested compounds starting from a concentration of 10 μM. All experimental conditions were tested in triplicate for statistical analysis. The plates were incubated for 72 h at 37 °C in a humidified 5% CO2 atmosphere. At the end of the incubation period, 10 μL of 100 μg/mL resazurin solution was added to each well; then, the plate was re-incubated for 3–4 h. The fluorescence of the wells in each plate was monitored using a Spark 10 M spectrophotometer (Tecan Group Ltd., Mannedorf, Switzerland) with a 535 nm excitation wavelength and a 600 nm emission wavelength.

HT-29 = test: Antiproliferative assay (resazurin, 72 h); format: cell-based, human; details: mean ± SE, 72 h
Procedure: as §1, §2

HeLa = test: Antiproliferative assay (resazurin, 72 h); format: cell-based, human
Procedure: as §1, §2

Jurkat = test: Antiproliferative assay (resazurin, 72 h); format: cell-based, human; details: mean ± SE, 72 h
Procedure: as §1, §2

MDA-MB-231 = test: Antiproliferative assay (resazurin, 72 h); format: cell-based, human; details: for IC50: mean ± SE, 72 h
Procedure: as §1, §2

[1] = Homo sapiens, A549, Table 1, mean ± SE
[2] = Homo sapiens, HeLa, Table 1, mean ± SE
[3] = Homo sapiens, MDA-MB-231, Table 1
[4] = Homo sapiens, A549, Table 2, mean ± SE
[5] = Homo sapiens, HeLa, Table 2, mean ± SE
[6] = Homo sapiens, MDA-MB-231, Table 2

| Compound | IC50 (A549; [1]) [nM] | IC50 (HT-29; Homo sapiens, HT-29, Table 1) [nM] | IC50 (HeLa; [2]) [nM] | IC50 (Jurkat; Homo sapiens, Jurkat, Table 1) [nM] | IC50 (MDA-MB-231; [3]) [nM] | melting point [°C] | fold more active than 7i (MDA-MB-231; MDA-MB-231 cells) [fold] | IC50 (A549; [4]) [nM] | IC50 (HT-29; Homo sapiens, HT-29, Table 2) [nM] | IC50 (HeLa; [5]) [nM] | IC50 (Jurkat; Homo sapiens, Jurkat, Table 2) [nM] | IC50 (MDA-MB-231; [6]) [nM] | IC50 (A549; Table 2, mean ± SE) [nM] | IC50 (HT-29; Table 2) [nM] | IC50 (HeLa; Table 2, mean ± SE) [nM] | IC50 (Jurkat; Table 2) [nM] | IC50 (MDA-MB-231; Table 2) [nM] |
| --- | --- | --- | --- | --- | --- | --- | --- | --- | --- | --- | --- | --- | --- | --- | --- | --- | --- |
| COc1cc(Nc2cc(C)nc3nc(NCCc4ccc(F)cc4)nn23)cc(OC)c1OC [Compound 7aa, N^2-(4-Fluorophenethyl)-5-methyl-N^7-(3,4,5-trimethoxyphenyl)-[1,2,4]triazolo [1,5-a]pyrimidine-2,7-diamine] | > 10000 | 2830 ± 220 | 2500 ± 270 | 9610 ± 890 | > 10000 | 150 to 152 | – | – | – | – | – | – | – | – | – | – | – |
| COc1cc(Nc2cc(C)nc3nc(NCCc4ccc(Cl)cc4)nn23)cc(OC)c1OC [Compound 7ab, N^2-(4-Chlorophenethyl)-5-methyl-N^7-(3,4,5-trimethoxyphenyl)-[1,2,4]triazolo [1,5-a]pyrimidine-2,7-diamine] | > 10000 | > 10000 | 5810 ± 480 | 5940 ± 500 | > 10000 | 196 to 198 | – | – | – | – | – | – | – | – | – | – | – |
| COc1ccc(CCNc2nc3nc(C)cc(Nc4cc(OC)c(OC)c(OC)c4)n3n2)cc1 [Compound 7ac, N^2-(4-Methoxyphenethyl)-5-methyl-N^7-(3,4,5-trimethoxyphenyl)-[1,2,4]triazolo [1,5-a]pyrimidine-2,7-diamine] | 8880 ± 880 | 6880 ± 490 | 5050 ± 630 | 9590 ± 1170 | 1650 ± 190 | 214 to 216 | – | – | – | – | – | – | – | – | – | – | – |
| COc1cc(Nc2cc(C)nc3nc(Nc4ccccc4)nn23)cc(OC)c1OC [Compound 7d, 5-Methyl-N2-phenyl-N7-(3,4,5-trimethoxyphenyl)-[1,2,4]triazolo [1,5-a]pyrimidine-2,7-diamine] | 2300 ± 120 | 820 ± 70 | 520 ± 60 | 590 ± 10 | 1430 ± 140 | 241 | – | – | – | – | – | – | – | – | – | – | – |
| COc1cc(Nc2cc(C)nc3nc(Nc4ccc(F)cc4)nn23)cc(OC)c1OC [Compound 7e, N2-(4-Fluorophenyl)-5-methyl-N7-(3,4,5-trimethoxyphenyl)-[1,2,4]triazolo [1,5-a]pyrimidine-2,7-diamine] | 1020 ± 80 | 690 ± 60 | 390 ± 20 | 820 ± 1 | 710 ± 70 | 247 | – | – | – | – | – | – | – | – | – | – | – |
| COc1cc(Nc2cc(C)nc3nc(Nc4ccc(C)cc4)nn23)cc(OC)c1OC [Compound 7g, 5-Methyl-N2-(p-tolyl)-N7-(3,4,5-trimethoxyphenyl)-[1,2,4]triazolo [1,5-a]pyrimidine-2,7-diamine] | 1550 ± 190 | 940 ± 110 | 500 ± 40 | 850 ± 20 | 1510 ± 140 | 234 | – | – | – | – | – | – | – | – | – | – | – |
| COc1ccc(Nc2nc3nc(C)cc(Nc4cc(OC)c(OC)c(OC)c4)n3n2)cc1 [Compound 7h, N2-(4-Methoxyphenyl)-5-methyl-N7-(3,4,5-trimethoxyphenyl)-[1,2,4]triazolo [1,5-a]pyrimidine-2,7-diamine] | 3760 ± 140 | 920 ± 90 | 520 ± 30 | 1010 ± 130 | 1170 ± 130 | 215 | – | – | – | – | – | – | – | – | – | – | – |
| COc1cc(Nc2cc(C)nc3nc(NCc4ccccc4)nn23)cc(OC)c1OC [Compound 7i, N^2-Benzyl-5-methyl-N^7-(3,4,5-trimethoxyphenyl)-[1,2,4]triazolo [1,5-a]pyrimidine-2,7-diamine] | 3750 ± 260 | 3530 ± 140 | 3200 ± 240 | 4400 ± 380 | 2710 ± 310 | 173 to 175 | – | – | – | – | – | – | – | – | – | – | – |
| COc1cc(Nc2cc(C)nc3nc(NCc4ccncc4)nn23)cc(OC)c1OC [Compound 7j, 5-Methyl-N^2-(pyridin-4-ylmethyl)-N^7-(3,4,5-trimethoxyphenyl)-[1,2,4]triazolo [1,5-a]pyrimidine-2,7-diamine] | > 10000 | 2530 ± 250 | 3010 ± 300 | 9640 ± 800 | 59 ± 10 | 184 to 186 | 46 | – | – | – | – | – | – | – | – | – | – |
| COc1cc(Nc2cc(C)nc3nc(NCc4cccnc4)nn23)cc(OC)c1OC [Compound 7k, 5-Methyl-N^2-(pyridin-3-ylmethyl)-N^7-(3,4,5-trimethoxyphenyl)-[1,2,4]triazolo [1,5-a]pyrimidine-2,7-diamine] | 5280 ± 650 | 3570 ± 480 | 2980 ± 320 | 6850 ± 630 | 560 ± 67 | 178 to 180 | – | – | – | – | – | – | – | – | – | – | – |
| COc1cc(Nc2cc(C)nc3nc(NCc4cccc(F)c4)nn23)cc(OC)c1OC [Compound 7m, N^2-(3-Fluorobenzyl)-5-methyl-N^7-(3,4,5-trimethoxyphenyl)-[1,2,4]triazolo [1,5-a]pyrimidine-2,7-diamine] | 2180 ± 310 | 1530 ± 160 | 930 ± 20 | 5550 ± 480 | 77 ± 10 | 176 to 178 | – | – | – | – | – | – | – | – | – | – | – |
| COc1cc(Nc2cc(C)nc3nc(NCc4cccc(C)c4)nn23)cc(OC)c1OC [Compound 7q, 5-Methyl-N^2-(3-methylbenzyl)-N^7-(3,4,5-trimethoxyphenyl)-[1,2,4]triazolo [1,5-a]pyrimidine-2,7-diamine] | 3880 ± 280 | 3460 ± 370 | 1610 ± 130 | 7020 ± 620 | 1680 ± 180 | 162 to 164 | – | – | – | – | – | – | – | – | – | – | – |
| COc1cc(Nc2cc(C)nc3nc(NCc4ccccc4C)nn23)cc(OC)c1OC [Compound 7r, 5-Methyl-N^2-(2-methylbenzyl)-N^7-(3,4,5-trimethoxyphenyl)-[1,2,4]triazolo [1,5-a]pyrimidine-2,7-diamine] | 1920 ± 90 | > 10000 | > 10000 | 4440 ± 470 | 2990 ± 180 | 182 to 184 | – | – | – | – | – | – | – | – | – | – | – |
| COc1cccc(CNc2nc3nc(C)cc(Nc4cc(OC)c(OC)c(OC)c4)n3n2)c1 [Compound 7t, N^2-(3-Methoxybenzyl)-5-methyl-N^7-(3,4,5-trimethoxyphenyl)-[1,2,4]triazolo [1,5-a]pyrimidine-2,7-diamine] | 1650 ± 140 | 1040 ± 80 | 880 ± 90 | 1650 ± 110 | 1780 ± 150 | 150 to 152 | – | – | – | – | – | – | – | – | – | – | – |
| COc1ccccc1CNc1nc2nc(C)cc(Nc3cc(OC)c(OC)c(OC)c3)n2n1 [Compound 7u, N^2-(2-Methoxybenzyl)-5-methyl-N^7-(3,4,5-trimethoxyphenyl)-[1,2,4]triazolo [1,5-a]pyrimidine-2,7-diamine] | > 10000 | > 10000 | > 10000 | > 10000 | 4400 ± 260 | 208 to 210 | – | – | – | – | – | – | – | – | – | – | – |
| COc1ccc(CNc2nc3nc(C)cc(Nc4cc(OC)c(OC)c(OC)c4)n3n2)cc1OC [Compound 7v, N^2-(3,4-Dimethoxybenzyl)-5-methyl-N^7-(3,4,5-trimethoxyphenyl)-[1,2,4]triazolo [1,5-a]pyrimidine-2,7-diamine] | 1000 ± 90 | > 10000 | 560 ± 70 | 1220 ± 90 | 1220 ± 150 | 194 to 196 | – | – | – | – | – | – | – | – | – | – | – |
| COc1cc(Nc2cc(C)nc3nc(NCc4ccc(C#N)cc4)nn23)cc(OC)c1OC [Compound 7x, 4-(((5-Methyl-7-((3,4,5-trimethoxyphenyl)amino)-[1,2,4]triazolo [1,5-a]pyrimidin-2-yl)amino)methyl)benzonitrile] | > 10000 | > 10000 | 9010 ± 210 | > 10000 | 1550 ± 110 | 178 to 180 | – | – | – | – | – | – | – | – | – | – | – |
| COc1cc(Nc2cc(C)nc3nc(NCCc4ccccc4)nn23)cc(OC)c1OC [Compound 7z, 5-Methyl-N^2-phenethyl-N^7-(3,4,5-trimethoxyphenyl)-[1,2,4]triazolo [1,5-a]pyrimidine-2,7-diamine] | 2010 ± 160 | 1890 ± 160 | 860 ± 100 | 1990 ± 240 | 940 ± 90 | 201 to 203 | – | – | – | – | – | – | – | – | – | – | – |
| Cc1cc(Nc2ccc(F)c(Cl)c2)n2nc(NCc3ccc(Cl)cc3)nc2n1 [Compound 8a, N^7-(3-Chloro-4-fluorophenyl)-N^2-(4-chlorobenzyl)-5-methyl-[1,2,4]triazolo [1,5-a]pyrimidine-2,7-diamine] | – | – | – | – | – | 186 to 188 | – | 320 ± 60 | 340 ± 20 | 190 ± 50 | 500 ± 310 | 390 ± 40 | – | – | – | – | – |
| Cc1cc(Nc2cccc(Cl)c2)n2nc(NCc3ccc(Cl)cc3)nc2n1 [Compound 8b, N^7-(3-Chlorophenyl)-N^2-(4-chlorobenzyl)-5-methyl-[1,2,4]triazolo [1,5-a]pyrimidine-2,7-diamine] | – | – | – | – | – | 158 to 160 | – | 1740 ± 130 | 1640 ± 220 | 810 ± 150 | 880 ± 500 | 1880 ± 80 | – | – | – | – | – |
| Cc1cc(Nc2cccc(Cl)c2)n2nc(NCCCc3ccccc3)nc2n1 [Compound 8t] | – | – | – | – | – | – | – | – | – | – | – | – | 260 ± 70 | 380 ± 30 | 153 ± 10 | 140 ± 70 | 1320 ± 870 |
